Test results published in paper PMC5908784, “Extracellular loops 2 and 3 of the calcitonin receptor selectively modify agonist binding and efficacy” (Biochemical Pharmacology, 2018).
Positions count from the first letter of the chain named. Where no end group is shown, it is not given here.

Experiments:
Experiment in all cases: Homologous whole cell competition binding
Details in all cases: homologous competition of 125I-sCT(8-32), whole cells, mean ± S.E.M., SEM
hCTR L297A = target: T1, hCTR L297A (Homo sapiens, UniProt P30988, L297A)
T1 construct: c-Myc (N); expressed in transfected cells
T1 sequence (P30988 25-474 L297A): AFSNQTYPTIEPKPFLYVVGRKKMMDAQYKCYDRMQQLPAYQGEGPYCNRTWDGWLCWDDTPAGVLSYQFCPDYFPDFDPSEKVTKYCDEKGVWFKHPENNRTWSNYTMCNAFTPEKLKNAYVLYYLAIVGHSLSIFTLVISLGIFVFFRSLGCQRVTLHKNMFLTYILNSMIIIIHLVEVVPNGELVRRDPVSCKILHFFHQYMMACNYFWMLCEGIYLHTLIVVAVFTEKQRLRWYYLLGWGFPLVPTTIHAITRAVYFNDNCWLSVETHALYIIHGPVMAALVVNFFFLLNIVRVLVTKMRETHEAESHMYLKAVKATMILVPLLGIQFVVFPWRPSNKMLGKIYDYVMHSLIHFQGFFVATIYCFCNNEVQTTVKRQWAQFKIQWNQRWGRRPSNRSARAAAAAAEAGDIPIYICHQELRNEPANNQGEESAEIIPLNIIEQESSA
Method: (§1) Homologous radioligand competition was performed on 2.5 × 10^4 cells/well seeded into 96-well trays and cultured overnight. Cells were incubated overnight at 4 °C with two concentrations of ^125I-sCT(8-32) (between 25 and 100 pM; specific activity, 2000 Ci/mmol^9) and serial dilutions of non-iodinated sCT(8-32). Non-bound ligand was removed and bound ligand activity was measured using a γ counter (Wallac Wizard 1470 Gamma Counter, Perkin Elmer, 80% counter efficiency). Values were normalized against non-specific binding (0%) defined by the presence of 1 μM of unlabelled sCT(8-32), and total ligand bound in absence of competing sCT(8-32) (100%).
(§2) IC50 and Bmax values were estimated from competitive inhibition of ^125I-sCT(8-32) binding using a 3-parameter logistic equation (log(inhibitor versus response)) in Prism (v7; Graphpad). Data were corrected for radioligand occupancy using the Cheng-Prusoff equation in Prism; as such data are reported as pKi. Emax and EC50 were estimated from concentration-response curves using with a 3-parameter logistic equation in Prism (v7). These values are a composite of functional affinity, efficacy and stimulus response coupling. The Black and Leff operational model of agonism was applied to separate effects on pathway-specific efficacy (τ) from those that modify ligand functional affinity (pKA). Derived τ values were normalized to experimentally determined levels of cell surface expression to provide a measure of efficacy (τc) that is independent of affinity and altered cell surface receptor expression. pKi, pKA and log τc values for mutant receptors were statistically compared to those of the WT receptor using a one-way analysis of variance (ANOVA) and Dunnett’s post-test. Significance was accepted at P < 0.05.

hCTR V357A = target: T2, hCTR V357A (Homo sapiens, UniProt P30988, V357A)
T2 construct: c-Myc (N); expressed in transfected cells
T2 sequence (P30988 25-474 V357A): T1 sequence (P30988 25-474 L297A) with A273L, V333A
Method: as §1, §2

hCTR W361A = target: T3, hCTR W361A (Homo sapiens, UniProt P30988, W361A)
T3 construct: expressed in transfected cells
T3 sequence (P30988 25-474 W361A): T1 sequence (P30988 25-474 L297A) with A273L, W337A
Method: as §1, §2

hCTR M376A = target: T4, hCTR M376A (Homo sapiens, UniProt P30988, M376A)
T4 construct: c-Myc (N); expressed in transfected cells
T4 sequence (P30988 25-474 M376A): T1 sequence (P30988 25-474 L297A) with A273L, M352A
Method: as §1, §2

Ki (hCTR L297A): 0.0631 nM
Ki (hCTR V357A): 0.209 nM
Ki (hCTR W361A): 0.282 nM
Ki (hCTR M376A): 0.132 nM
Substance: VLGKLSQELHKLQTYPRTNTGSGTP-NH2 [sCT(8-32)]
